Experiment [1] relates to FAS receptor. Briefly: FAS mRNA expression in splenocytes of AIA rats, RT-PCR. The class given is in vivo, rat. To be noted: compared to Non-Cit-ME and control groups. How it is done: To examine whether Cit-ME affects apoptosis through the FAS receptor pathway, FAS mRNA expression in splenocytes was evaluated (FIG. 14F), using the following RT-PCR primers: forward 5′-TGGCTGTCCTGCCTCTGGT-3′ (SEQ ID NO: 19) and reverse 5′-[…]-3′ (SEQ ID NO: 20).

Experiment [2] has as its system CD4+IL-17+ T cells. Nature of the experiment: CD4+IL-17+ T cells in the spleen of AIA rats, FACS. The class given is in vivo, rat. The procedure:
Distribution of pathogenic CD4^+IL-17^+ T cells in the spleen of experimental rats was assessed by FACS.

The test system of experiment [3] is T cells derived from the spleen. Briefly: Apoptosis of T cells from the spleen of AIA rats, Annexin V/PI staining. The class given is in vivo, rat. To be noted: gated for PI and CD4+, two independent experiments, control 13±1%. The procedure:
To assess apoptosis of T cells derived from the spleen of treated rats, the Annexin V/PI staining method was preformed. FIGS. 14A-14C are representative histograms of cells treated with Cit-Me (FIG. 14A), non-Cit-Me (FIG. 14B) or untreated (FIG. 14C). The histograms present apoptosis measured by Annexin V^+. First, cells were gated for PI and CD4^+ and next analyzed for percentage of Annexin-V positive cells. […] A significant increase (p<0.01) in the mean apoptotic rate was determined in cells from the spleen of Cit-ME treated rats (19.5±1.8%) in comparison with Non-Cit-ME or control (13.8±1.3% and 13±1%, respectively).

Experiment [4] relates to CD4+CD25+Foxp3+ T cells. Briefly: Regulatory T cell proportion in PBMC of RA patients, FACS. The class given is cell-based, human. To be noted: 1.25 μg/ml peptide, 48 hours, compared with non-citrullinated matched peptide. How it is done: Given the observed immunomodulation of cytokines following incubation of peripheral blood mononuclear cells obtained from rheumatoid arthritis patients with citrullinated peptides, the citrullinated peptides were tested for their ability to exert an effect on the T regulatory population proportion. Peripheral blood mononuclear cells of rheumatoid arthritis patients were cultured in the presence of 1.25 μg/ml of the peptides (Fil-Cit, β-Fib-Cit, and Cit-ME; FIGS. 6A, 6B and 6E, respectively, and Fil-NC, β-Fib-NC and Non-Cit-ME; FIGS. 6C, 6D and 6G, respectively), and Infliximab (FIG. 6F) for 48 hours. Cells cultured with medium devoid of the peptides and Infliximab served as control (FIG. 6H). Thereafter, cells were stained for the expression of CD4, CD25, and FoxP3 and analyzed by FACS. […] Mean percentage of CD4^+CD25^+Foxp3^+ T cells in the presence of Infliximab was increased by 14% as compared to medium (FIG. 6F and FIG. 6H, respectively). Thus, citrullinated peptides are able to induce the expansion of the T regulatory cell population.

In experiment [5] the test system is anti cit-collagen ACPA. Nature of the experiment: Peptide inhibition assay in ELISA, plates coated with cit-collagen. More on the design: species or system human. To be noted: sera of ACPA-positive RA patients diluted to about 50% binding OD, 2 h preincubation at room temperature. How it is done: (§1) Peptide inhibition assay in ELISA was used to confirm the cross-reactivity of the Cit-ME peptide to the following anti-citrullinated protein antibodies (ACPA): anti citrullinated filaggrin, anti cit-β-fibrinogen, anti cit-collagen and anti cit-vimentin. Sera were obtained from ACPA RA patients and samples with highly positive ACPA levels were selected (≥100 U/ml) using commercial CCP ELISA test (INOVA). ELISA test was performed with each of the citrullinated peptides: cit-filaggrin (HQCHQESTCitGRSRGRCGRSGS) set forth in SEQ ID NO: 3, cit-β-fibrinogen (CitPAPPPISGGGYCitACit) set forth in SEQ ID NO: 2, cit-collagen (ACitGLTGCitPGDAK) set forth in SEQ ID NO: 21 and cit-vimentin (SAVRACitSSVPGVRK) set forth in SEQ ID NO: 22. Sera were diluted in PBS to obtain a reactivity of approximately 50% binding OD under standard assay conditions. Increasing concentrations of Cit-ME peptide were added to the diluted sera and incubated for two hours at room temperature. Specimens were then assayed in ELISA plates coated with each one of the peptides. […] Thus, ACPA have binding specificity to Cit-ME.

Experiment [6] concerns IFN-γ. Nature of the experiment: IFN-γ gene expression in mononuclear cells derived from synovial fluid of RA patients, real-time PCR. The class given is cell-based, human. To be noted: 24 h, compared to the non-citrullinated peptides. The procedure: (§2) To assess the effect of the Cit-ME peptide (SEQ ID NO: 1) on inflammatory related genes expression, peripheral blood mononuclear cells derived from synovial fluid rheumatoid arthritis patients were incubated with the Cit-ME multi-epitope citrullinated peptide for 24 h. The effect of the peptide on gene expression was compared also to the effect of infliximab, a TNF-α blocker, which is an antirheumatic drug that acts as an anti-inflammatory compound. […] Results were determined by real-time PCR.
In general terms: In qPCR the cycle at which signal appears reflects the starting amount.

In experiment [7] the test system is IL-17. Nature of the experiment: IL-17 mRNA expression in the spleen of AIA rats, RT-PCR. The class given is in vivo, rat. To be noted: spleens of AIA rats, 8 rats per treatment, compared to control. The procedure:
To validate the effect of the peptides on CD4^+IL-17^+ populations as determined by FACS, the expression of IL-17 in the spleen was evaluated using RT-PCR. cDNA was extracted from the spleens of 8 rats per treatment (including control), and gene expression of IL-17 was assessed using the following RT-PCR primers: forward 5′-TGGCGGTTCTCCTTCAGTC-3′ (SEQ ID NO: 17) and reverse 5′-[…]-3′ (SEQ ID NO: 18). […] Thus, the RT-PCR data was in line with the FACS analyses.

For experiment [8], the system named is CD4+CD25+FoxP3+ regulatory T cells. Briefly: Regulatory T cells in splenocytes of AIA rats, FACS. It counts as in vivo, rat. An excerpt: Splenocytes from rats at day 28 post disease induction were stained with anti-CD4-FITC, anti-CD25-APC, and anti-Foxp3-PE (eBioscience) mAbs and analyzed by FACS. In representative outputs as shown in FIG. 12A-C, Regulatory T cells subpopulation was higher in Cit-ME treated rats (9%), compared to 7% and 6.2% in Non-Cit-ME peptide and untreated rats, respectively. Statistical analysis of the results is shown in FIG. 12D (Cit-ME n=9, Non-Cit-ME n=11, untreated rats n=7).

Experiment [9] has as its system TNF-α. Briefly: TNF-α gene expression in mononuclear cells derived from synovial fluid of RA patients, real-time PCR. To be noted: 24 h, compared to the non-citrullinated peptides. The class given is cell-based, human. How it is done: as §2
In experiment [10] the test system is anti cit-β-fibrinogen ACPA. Briefly: Peptide inhibition assay in ELISA, plates coated with cit-β-fibrinogen. On the set-up: species or system human. To be noted: sera of ACPA-positive RA patients diluted to about 50% binding OD, 2 h preincubation at room temperature. How it is done: as §1
The test system of experiment [11] is TGF-β. Nature of the experiment: TGF-β gene expression in mononuclear cells derived from synovial fluid of RA patients, real-time PCR. The class given is cell-based, human. To be noted: 24 h, compared to the non-citrullinated peptides. How it is done: as §2

Consider “VCitLCitSSVESTCitGRSCitPAPPPACitGLT [Cit-ME]”, for which the “mean relative expression level of FAS mRNA” value in experiment [1] is “significantly higher”. Besides, in experiment [2] (AIA rats, n=8, untreated 1.14±0.2), the “population of CD4+IL-17+-expressing splenocytes, statistical analysis” value is listed as 0.68±0.1. Besides, in experiment [2] (spleen of AIA rats, untreated 2%), the “IL-17+ population, representative results” value is recorded as 0.6%. For the same substance, the “mean apoptotic rate (Annexin-V positive cells)” value in experiment [3] is given as 19.5±1.8%. The “increase in mean percentage of CD4+CD25+Foxp3+ T cells” value in [4] turned out to be 12%. Besides, in [5], the “amount of peptide sufficient to impair binding of specific ACPA to cit-collagen” value lay within 10 to 200 µg. Further, in experiment [6], the “expression of IFN-γ” value is given as “down-regulated”. Also, the “mean relative expression level of IL-17 mRNA” value in experiment [7] was “significant reduction”. Besides, the “percentage of CD4+CD25+FoxP3+ regulatory T cells subset, statistical analysis” value in [8] (spleens of AIA rats, day 28, untreated 7.17±0.31) was determined as 8.13±0.17%. Also, in experiment [8] (splenocytes of AIA rats, day 28 post disease induction, untreated 6.2%), the “Regulatory T cells subpopulation, representative outputs” value was 9%. The “expression of TNF-α” value in experiment [9] is on record as “down-regulated”. In experiment [10], the “amount of peptide sufficient to impair binding of specific ACPA to cit-β-fibrinogen” value was 10 to 200 µg. The “expression of TGF-β” value in experiment [11] is “up-regulated”.

For the origin of these results see patent publication US9975944B2, “Synthetic peptides for the treatment of autoimmune diseases” (TEL HASHOMER MEDICAL RESEARCH INFRASTRUCTURE AND SERVICES …, priority 2013, dated 2018).
